# In PubChem BioAssay AID1963978 (Molecular Pharmacology Branch, DTP, NCI, 2024):
# Several values for one entry are separate records, joined by “and”; a condition that tells them apart may be missing. Equal entries are not always repeated.
# Tested on: 616215-338-R-J1-PDC spheroids with HUVEC/MSC, viability
# Experiment: Anticancer human tumor 616215-338-R-J1-PDC patient-derived colon adenocarcinoma cell line growth inhibition [PI3K]
# Settings: for viability, T/C: stronger effect = lower value
# Excerpt: Combinatorial screen of targeted agents with the PI3K inhibitors inavolisib, alpelisib, duvelisib, and copanlisib in multi-cell type tumor spheroids
# A high-throughput screen of multi-cell type tumor spheroids was designed to identify active combinations of targeted small molecules and PI3K pathway inhibitors. Complex spheroids include a stromal component modeled by human endothelial cells (HUVEC) and fibroblasts modeled by human mesenchymal stem cells (MSCs). The concentration ranges selected for each drug and investigational agent were based upon clinically achievable concentrations if the clinical Cmax of the agent was known.
# Compounds. The drugs and investigational agents: inavolisib (NSC800729), alpelisib (NSC765974), duvelisib (NSC772469), copanlisib (NSC816437), ipatasertib (NSC767898), afuresertib (NSC778305), talazoparib (NSC767125), sapanisertib (NSC764658), selumetinib (NSC741078), tovorafenib (DAY101, NSC766906), vemurafenib (NSC761431), ravoxertinib (NSC781343), sotorasib (NSC818433), MRTX1133 (NSC 836407), abemaciclib (NSC 768073), palbociclib (NSC758247), venetoclax (NSC 766270), SY5609 (NSC837396), enzalutamide (NSC755605), and darolutamide (NSC825331), were obtained from the National Cancer Institute (NCI) Developmental Therapeutics Program Chemical Repository. The FDA-approved anticancer drug set is available from the NCI Developmental Therapeutics Program. […] The stock solutions were prepared in dimethyl sulfoxide (DMSO, Sigma-Aldrich, St. Louis, MO, cat. D2650) at 800-fold the tested concentration and stored at -70 degrees C prior to their use. All drugs and investigational agents were tested over a range starting from a high concentration at or near the clinical Cmax and decreasing in half-log increments. If the clinical Cmax for an agent had not been determined, the highest concentration tested was 10 microM.
# Cell Culture. All cells were maintained in an incubator at 37 degrees C and 5% CO2 with 95% humidity. The PDC lines were cultured according to standard operating procedures established by the NCI PDMR (https://pdmr.cancer.gov/sops/default.htm). All PDCs were thawed and cultured in Matrigel-coated flasks prepared with a working solution of 1X Ham's F-12 nutrient mix, without supplementation (Invitrogen, Waltham, MA, cat. 11765054), 100 U/mL penicillin-streptomycin (Invitrogen, cat. 15140122), and 2.5% Matrigel (Corning Inc., Corning, NY, cat. 354248) for the first three passages. The 354836-022-R-J1-PDC, 475296-252-R-J1-PDC, and 997726-040-R-J2-PDC lines were cultured in 6A media, which includes advanced DMEM/F-12 (Thermo Fisher Scientific, cat. 12634028), 10 mM HEPES (Thermo Fisher Scientific, cat. 15630080), 1X GlutaMAX supplement (Thermo Fisher Scientific, cat. 35050061), 0.1 mg/mL primocin (InvivoGen, San Diego, CA, cat. ant-pm-2), 10% defined fetal bovine serum, heat inactivated (HyClone Laboratories Inc., Logan, UT, cat. SH30070.03HI), 50% L-WRN conditioned media (ATCC, cat. CRL-3276), 1.25 mM N-Acetyl-L-cysteine (Sigma-Aldrich, cat. A9165), 10 mM nicotinamide (Sigma-Aldrich, cat. N0636), 1X B-27 supplement (Thermo Fisher Scientific, cat. 17504044), 1X N-2 supplement (Thermo Fisher Scientific, cat. 17502048), and 10 microM Y-27632 dihydrochloride (Tocris Bioscience, Bristol, United Kingdom, cat. 1254). The 624824-186-R-J2-PDC line was cultured in 6C/Colon 1B media, which includes all 6A media components plus 50 ng/mL human EGF recombinant protein (Thermo Fisher Scientific, cat. PHG0311). […]
# [1] = compound alone, run of 05/08/2023
# [2] = compound alone, run of 05/09/2023
# 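Note: spheroids exposed to agents for seven days before the viability read.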
SMILES,"viability, T/C (compound 0.000316 µM)","viability, T/C (compound 0.001 µM)","viability, T/C (compound 0.00316 µM)","viability, T/C (compound 0.01 µM)","viability, T/C (compound 0.0316 µM)","viability, T/C (compound 0.1 µM)",IC50 (curve of compound),"viability, T/C (compound 0.316 µM)","viability, T/C (compound 1 µM)","viability, T/C (compound 3.16 µM)",further results
CC(=O)c1c(C)c2cnc(Nc3ccc(N4CCNCC4)cn3)nc2n(C2CCCC2)c1=O,96.5% [middle of 4 runs],98.8% [middle of 4 runs],98.5% [middle of 4 runs],112% [middle of 4 runs],97.5% [middle of 4 runs],115% [middle of 4 runs],> 0.1 µM,,,,
CC(C)NCC(C(=O)N1CCN(c2ncnc3c2C(C)CC3O)CC1)c1ccc(Cl)cc1 (stereo unspecified),,,,,98.8% [middle of 4 runs],94.3% [middle of 4 runs],6.53 µM [middle of 4 runs],95.1% [middle of 4 runs],102% [middle of 4 runs],77.5% [middle of 4 runs],
CC(C)n1nc(-c2ccc3oc(N)nc3c2)c2c(N)ncnc21,95.1% [middle of 4 runs],95.7% [middle of 4 runs],100% [middle of 4 runs],107% [middle of 4 runs],121% [middle of 4 runs],94.5% [middle of 4 runs],> 0.1 µM,,,,
CC(Nc1ccc2c(c1)OCCn1cc(N3C(=O)OCC3C(F)F)nc1-2)C(N)=O (stereo unspecified),,,94.5% [middle of 8 runs],96.4% [middle of 8 runs],100% [middle of 8 runs],97.1% [middle of 8 runs],,98.8% [middle of 8 runs],105% [middle of 8 runs],,IC50 [1]: > 1 µM
CC(Nc1ncnc2nc[nH]c12)c1cc2cccc(Cl)c2c(=O)n1-c1ccccc1 (stereo unspecified),,,,,103% [middle of 8 runs],96.5% [middle of 8 runs],,99.3% [middle of 8 runs],105% [middle of 8 runs],102% [middle of 8 runs],"viability, T/C (compound 10 µM): 105% [middle of 8 runs]; IC50 [2]: > 10 µM"
CCN1CCN(Cc2ccc(Nc3ncc(F)c(-c4cc(F)c5nc(C)n(C(C)C)c5c4)n3)nc2)CC1,,,98.2% [middle of 4 runs],92.2% [middle of 4 runs],97.4% [middle of 4 runs],114% and 104% (2×) and 116%,> 1 µM,,,,
COc1c(OCCCN2CCOCC2)ccc2c3n(c(=NC(=O)c4cnc(N)nc4)nc12)CCN3,,,93.2% [middle of 8 runs],96.5% [middle of 8 runs],96.2% [middle of 8 runs],91.2% [middle of 8 runs],,45% [middle of 8 runs],26.3% [middle of 8 runs],,IC50 [2]: 279 nM [middle of 7 runs]
Cc1nc(NC(=O)N2CCCC2C(N)=O)sc1-c1ccnc(C(C)(C)C(F)(F)F)c1 (stereo unspecified),,,,,97.3% [middle of 8 runs],102% [middle of 8 runs],,106% [middle of 8 runs],108% [middle of 8 runs],100% [middle of 8 runs],"viability, T/C (compound 10 µM): 99.5% [middle of 8 runs]; IC50 [1]: > 10 µM"
Cn1cnc2c(F)c(Nc3ccc(Br)cc3Cl)c(C(=O)NOCCO)cc21,,,,,,,,,,,"viability, T/C (compound 0.00949 µM): 96.1% [middle of 4 runs]; viability, T/C (compound 0.03 µM): 94.7% [middle of 4 runs]; viability, T/C (compound 0.0949 µM): 92.1% [middle of 4 runs]; viability, T/C (compound 0.3 µM): 80.6% [middle of 4 runs]; viability, T/C (compound 0.949 µM): 58.5% [middle of 4 runs]; viability, T/C (compound 3 µM): 45.3% [middle of 4 runs]"
Cn1ncnc1[C@H]1c2n[nH]c(=O)c3cc(F)cc(c23)N[C@@H]1c1ccc(F)cc1,95% [middle of 4 runs],97.2% [middle of 4 runs],100% [middle of 4 runs],102% [middle of 4 runs],102% [middle of 4 runs],94.5% [middle of 4 runs],> 0.1 µM,,,,
